Literature values in patent US20220087927A1, “ANTIMICROBIAL AGENT” (priority 2020, published 2022).

Columns and labels:
Settings in all cases: suspension 10^7-10^8 per ml
[1] = test system: E. coli (Escherichia coli)
[2] = test system: Candida (candida albicians)
Pseudomonas aeruginosa = test system: Pseudomonas aeruginosa
[3] = test system: Koji mold (asprogillus brasiliensis)
Staphylococcus aureus = test system: Staphylococcus aureus

SMILES	MIC (minimum growth prevention concentration) [1] [%]	MIC (minimum growth prevention concentration) [2] [%]	MIC (minimum growth prevention concentration) (Pseudomonas aeruginosa) [%]	MIC (minimum growth prevention concentration) [3] [%]	MIC (minimum growth prevention concentration) (Staphylococcus aureus) [%]
OCCCCO [butylene glycol]	10	14	8	18	16
CCO [ethanol]	5	7	5	5	9
